Laboratory results as given in patent US8148391B2 (Cephalon, Inc., priority 2006, dated 2012).
Where two headings read alike, the source gives them in different places.

Assays:
[1] = biological target: T1, c-Met (cytoplasmic domain) (Homo sapiens, UniProt P08581); assay: c-Met Kinase Assay (same methods as for ALK, with modifications); format: biochemical
T1 construct: 10 ng/mL c-Met (cytoplasmic domain, Invitrogen Corporation #PV3143); purchased Invitrogen Corporation PV3143
Procedure, shortened: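 Steps: coat wells with PLC-γ (10 μg/mL, Tris-buffered saline); add 10 ng/mL c-Met cytoplasmic domain to initiate; incubate 15 min, 37° C; detect phosphoproduct via Eu-N1 PT66 antibody.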

[2] = biological target: T2, baculovirus-expressed ALK (Homo sapiens, UniProt Q9UM73); assay: ALK Kinase Assay (ELISA-type, time-resolved fluorescence); format: biochemical
T2 construct: host or cells: baculovirus expression system
T2 sequence (Q9UM73 19-1620): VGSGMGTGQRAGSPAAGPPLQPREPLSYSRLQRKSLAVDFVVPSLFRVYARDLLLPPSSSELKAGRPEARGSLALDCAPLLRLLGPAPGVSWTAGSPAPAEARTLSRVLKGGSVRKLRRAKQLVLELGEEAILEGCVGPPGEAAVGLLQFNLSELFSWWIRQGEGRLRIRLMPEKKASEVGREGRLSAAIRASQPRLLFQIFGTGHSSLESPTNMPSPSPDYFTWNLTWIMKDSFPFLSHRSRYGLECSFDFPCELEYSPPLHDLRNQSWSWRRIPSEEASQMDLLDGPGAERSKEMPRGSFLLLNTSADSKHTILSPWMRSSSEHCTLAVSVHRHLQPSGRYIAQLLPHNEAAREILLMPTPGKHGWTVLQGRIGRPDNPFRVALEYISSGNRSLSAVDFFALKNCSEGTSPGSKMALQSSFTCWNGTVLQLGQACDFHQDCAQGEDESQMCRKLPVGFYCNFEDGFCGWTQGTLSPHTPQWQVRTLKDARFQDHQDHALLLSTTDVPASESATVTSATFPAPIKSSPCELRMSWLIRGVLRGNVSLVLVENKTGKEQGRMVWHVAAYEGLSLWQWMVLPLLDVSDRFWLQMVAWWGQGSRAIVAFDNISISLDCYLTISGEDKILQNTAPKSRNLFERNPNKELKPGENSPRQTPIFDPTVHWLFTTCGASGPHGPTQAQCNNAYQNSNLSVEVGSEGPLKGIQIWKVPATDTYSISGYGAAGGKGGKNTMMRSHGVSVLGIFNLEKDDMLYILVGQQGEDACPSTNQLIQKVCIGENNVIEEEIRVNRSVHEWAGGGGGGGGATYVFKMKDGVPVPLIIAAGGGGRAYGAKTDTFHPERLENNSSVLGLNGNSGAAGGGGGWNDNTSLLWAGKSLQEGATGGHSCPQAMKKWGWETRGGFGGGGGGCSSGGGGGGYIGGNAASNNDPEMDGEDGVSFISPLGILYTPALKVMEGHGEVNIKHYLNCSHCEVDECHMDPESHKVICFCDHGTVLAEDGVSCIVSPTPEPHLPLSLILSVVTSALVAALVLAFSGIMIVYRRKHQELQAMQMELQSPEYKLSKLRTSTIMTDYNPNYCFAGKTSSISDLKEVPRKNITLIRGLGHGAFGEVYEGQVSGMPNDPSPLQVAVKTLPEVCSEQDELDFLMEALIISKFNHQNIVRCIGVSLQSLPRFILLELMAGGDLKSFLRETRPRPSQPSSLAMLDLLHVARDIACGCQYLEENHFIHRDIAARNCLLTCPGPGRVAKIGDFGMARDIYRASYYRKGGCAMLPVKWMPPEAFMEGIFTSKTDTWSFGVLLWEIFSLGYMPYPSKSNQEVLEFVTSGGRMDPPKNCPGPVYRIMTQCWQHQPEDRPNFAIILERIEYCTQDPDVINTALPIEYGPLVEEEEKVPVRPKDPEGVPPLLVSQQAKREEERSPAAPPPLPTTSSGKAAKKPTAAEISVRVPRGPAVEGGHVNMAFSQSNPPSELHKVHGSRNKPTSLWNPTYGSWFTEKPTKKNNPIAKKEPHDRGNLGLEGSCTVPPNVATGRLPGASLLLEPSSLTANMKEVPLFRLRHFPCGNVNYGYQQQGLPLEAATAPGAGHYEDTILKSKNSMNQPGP
Procedure, shortened: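 Wells were coated with phospholipase C-γ at 10 μg/mL in Tris-buffered saline. Adding 30 ng/ml enzyme started the reaction, which ran at 37° C for 15 minutes before Eu-N1 PT66 antibody detection. Percent inhibition versus log10 concentration gave IC50 by variable-slope fit.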

[3] = 1 μM ATP (Km level), 10 ng/mL c-Met, read-out: cMet Activity (c-Met kinase inhibition, IC50 class)
[4] = 1 μM ATP (Km level), 30 ng/ml ALK, 37° C., 15 minutes, read-out: ALK Activity (ALK kinase inhibition, IC50 class)
[5] = 1 μM ATP (Km level), read-out: cMet Activity (c-Met Kinase Inhibition, IC50)
[6] = 1 μM ATP (Km level), read-out: ALK Activity (ALK Kinase Inhibition, IC50)
[7] = c-Met kinase inhibition, 1 μM ATP (Km level), read-out: cMet Activity
[8] = ALK kinase inhibition, 1 μM ATP (Km level), read-out: ALK Activity

T1 sequence (P08581 956-1390 limits assumed): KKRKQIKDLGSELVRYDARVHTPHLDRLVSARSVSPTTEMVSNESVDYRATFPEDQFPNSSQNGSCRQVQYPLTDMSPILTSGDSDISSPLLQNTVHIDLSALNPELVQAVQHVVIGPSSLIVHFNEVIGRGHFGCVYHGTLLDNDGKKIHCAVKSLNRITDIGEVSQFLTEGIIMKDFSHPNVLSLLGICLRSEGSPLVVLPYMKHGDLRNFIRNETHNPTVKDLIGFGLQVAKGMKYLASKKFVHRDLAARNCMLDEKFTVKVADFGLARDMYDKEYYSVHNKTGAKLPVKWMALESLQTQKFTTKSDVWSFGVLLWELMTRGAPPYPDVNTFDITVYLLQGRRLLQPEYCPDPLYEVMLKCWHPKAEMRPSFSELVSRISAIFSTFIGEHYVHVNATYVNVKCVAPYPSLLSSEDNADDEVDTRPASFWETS

Row | Compound | IC50 [1, 3] [nM] | IC50 [2, 4] [nM] | IC50 [1, 5] [nM] | IC50 [2, 6] [nM] | also measured
1 | CCN1C(=O)CCCc2cc(Nc3ncc(Cl)c(Nc4ccc(N(C)C)cc4OC)n3)c(OC)cc21 [Example 1340, 7-[5-Chloro-4-(4-dimethylamino-2-methoxy-phenylamino)-pyrimidin-2-ylamino]-1-ethyl-8-methoxy-1,3,4,5-tetrahydro-benzo[b]azepin-2-one] | > 10000 | < 100 | – | – | –
2 | CNC(=O)C1C2C=CC(C2)C1Nc1nc(Nc2ccc3c(c2)CCC(O)CC3)ncc1Cl (stereo not drawn) [Example 625, (2-exo-3-exo)-3-[5-Chloro-2-(7-hydroxy-6,7,8,9-tetrahydro-5H-benzocyclohepten-2-ylamino)-pyrimidin-4-ylamino]-bicyclo[2.2.1]hept-5-ene-2-carboxylic acid methylamide] | – | – | 100 to 1000 | < 100 | –
3 | CNC(=O)c1cccc(Br)c1Nc1nc(Nc2ccc3c(c2)CCOC(=O)N3C)ncc1Cl [Example 1751, 3-Bromo-2-[5-chloro-2-(5-methyl-6-oxo-5,6,8,9-tetrahydro-7-oxa-5-aza-benzocyclohepten-2-ylamino)-pyrimidin-4-ylamino]-N-methyl-benzamide] | – | – | – | – | IC50 ([1]; c-Met kinase inhibition, 1 μM ATP, read-out: cMet Activity): < 100 nM; IC50 ([2]; ALK kinase inhibition, 1 μM ATP, read-out: ALK Activity): 1000 to 10000 nM
4 | COc1cc2c(cc1Nc1ncc(Cl)c(Nc3ccccc3S(=O)(=O)N3CCOCC3)n1)CCN(CC(=O)N(C)C)CC2 [Example 836, 2-(7-{5-Chloro-4-[2-(morpholine-4-sulfonyl)-phenylamino]-pyrimidin-2-ylamino}-8-methoxy-1,2,4,5-tetrahydro-benzo[d]azepin-3-yl)-N,N-dimethyl-acetamide] | – | – | > 10000 | < 100 | –
5 | C#CCNC(=O)c1cccc(F)c1Nc1nc(Nc2ccc3c(c2)NC(=O)C(NC(=O)C(F)(F)F)CC3(C)C)ncc1Cl (stereo not shown) [Example 1279, 2-{5-Chloro-2-[5,5-dimethyl-2-oxo-3-(2,2,2-trifluoro-acetylamino)-2,3,4,5-tetrahydro-1H-1-benzazepin-8-ylamino]-pyrimidin-4-ylamino}-3-fluoro-N-prop-2-ynyl-benzamide] | < 100 | 100 to 1000 | – | – | –
6 | COc1cc2c(cc1Nc1ncc(Cl)c(Nc3ccccc3S(=O)(=O)N(C)C)n1)CCN(CC(=O)N1CCC1)CC2 [Example 1201, 2-{2-[3-(2-Azetidin-1-yl-2-oxo-ethyl)-8-methoxy-2,3,4,5-tetrahydro-1H-benzo[d]azepin-7-ylamino]-5-chloro-pyrimidin-4-ylamino}-N,N-dimethyl-benzenesulfonamide] | > 10000 | < 100 | – | – | –
7 | Cc1nnc(-c2ccccc2Nc2nc(Nc3ccc4c(c3)C(C)(C)CCC(=O)N4)ncc2Cl)s1 [Example 973, 7-{5-Chloro-4-[2-(5-methyl-[1,3,4]thiadiazol-2-yl)-phenylamino]-pyrimidin-2-ylamino}-5,5-dimethyl-1,3,4,5-tetrahydro-benzo[b]azepin-2-one] | – | – | 1000 to 10000 | 100 to 1000 | –
8 | CNC(=O)c1ccccc1Nc1nc(Nc2ccc3c(c2Cl)C2CCC(C3)N2C(C)C)ncc1Cl (stereo not shown) [Example 86, 2-[5-Chloro-2-(3-chloro-12-isopropyl-12-aza-tricyclo[7.2.1.0*2,7*]dodeca-2(7),3,5-trien-4-ylamino)-pyrimidin-4-ylamino]-N-methyl-benzamide] | – | – | – | – | IC50 [1, 7]: 100 to 1000 nM; IC50 [2, 8]: < 100 nM
9 | CNC(=O)c1cccc(C)c1Nc1nc(Nc2ccc3c(c2)N(CCOC)C(=O)CCC3)ncc1Cl [Example 361, 2-{5-Chloro-2-[1-(2-methoxy-ethyl)-2-oxo-2,3,4,5-tetrahydro-1H-benzo[b]azepin-8-ylamino]-pyrimidin-4-ylamino}-3,N-dimethyl-benzamide] | – | – | – | – | IC50 [1, 7]: < 100 nM; IC50 [2, 8]: 1000 to 10000 nM
10 | COc1cc2c(cc1Nc1ncc(Cl)c(Nc3ccccc3S(=O)(=O)N3CC[C@@H](N(C)C)C3)n1)CCN(CC(=O)N(C)C)CC2 [Example 845, 2-(7-{5-Chloro-4-[2-((R)-3-dimethylamino-pyrrolidine-1-sulfonyl)-phenylamino]-pyrimidin-2-ylamino}-8-methoxy-1,2,4,5-tetrahydro-benzo[d]azepin-3-yl)-N,N-dimethyl-acetamide] | – | – | > 10000 | < 100 | –
11 | COc1ccc(Nc2nc(Nc3ccc4c(c3)CCC(O)CC4)ncc2Cl)c2c1CN(C)C2=O (stereo not shown) [Example 938, 7-[5-Chloro-2-(7-hydroxy-6,7,8,9-tetrahydro-5H-benzocyclohepten-2-ylamino)-pyrimidin-4-ylamino]-4-methoxy-2-methyl-2,3-dihydro-isoindol-1-one] | – | – | 1000 to 10000 | 100 to 1000 | –
12 | CCN1CC2OC(C1)c1cc(Nc3ncc(Cl)c(Nc4ccccc4S(=O)(=O)NC)n3)ccc12 (stereo not shown) [Example 66, 2-[5-Chloro-2-(10-ethyl-12-oxa-10-aza-tricyclo[6.3.1.0*2,7*]dodeca-2(7),3,5-trien-4-ylamino)-pyrimidin-4-ylamino]-N-methyl-benzenesulfonamide] | – | – | – | – | IC50 [1, 7]: 1000 to 10000 nM; IC50 [2, 8]: < 100 nM
13 | COCCN1CCc2ccc(Nc3ncc(Cl)c(Nc4c(F)cccc4C(=O)NCCC#N)n3)cc2CC1 [Example 1043, 2-{5-Chloro-2-[3-(2-methoxy-ethyl)-2,3,4,5-tetrahydro-1H-benzo[d]azepin-7-ylamino]-pyrimidin-4-ylamino}-N-(2-cyano-ethyl)-3-fluoro-benzamide] | < 100 | 100 to 1000 | – | – | –
14 | CCNC(=O)c1ccccc1Nc1nc(Nc2ccc3c(c2)N(CC)CCN(CC)C3)ncc1Cl [Example 718, 2-[5-Chloro-2-(1,4-diethyl-2,3,4,5-tetrahydro-1H-1,4-benzodiazepin-8-ylamino)-pyrimidin-4-ylamino]-N-ethyl-benzamide] | – | – | < 100 | < 100 | –
15 | COCCN1CCc2cc(Nc3ncc(Cl)c(Nc4ccccc4-n4cccn4)n3)c(OC)cc2CC1 [Example 1321, 5-Chloro-N*2*-[8-methoxy-3-(2-methoxy-ethyl)-2,3,4,5-tetrahydro-1H-benzo[d]azepin-7-yl]-N*4*-(2-pyrazol-1-yl-phenyl)-pyrimidine-2,4-diamine] | > 10000 | < 100 | – | – | –
16 | COc1cc2c(cc1Nc1ncc(C(F)(F)F)c(N[C@H]3[C@@H](C(N)=O)[C@@H]4C=C[C@H]3C4)n1)CCN(CC(=O)N(C)C)CC2 [Example 933, (1S,2S,3R,4R)-3-[2-(3-Dimethylcarbamoylmethyl-8-methoxy-2,3,4,5-tetrahydro-1H-3-benzazepin-7-ylamino)-5-trifluoromethyl-pyrimidin-4-ylamino]-bicyclo[2.2.1]hept-5-ene-2-carboxylic acid amide] | – | – | 1000 to 10000 | < 100 | –
17 | CCN1CCCOc2cc(Nc3ncc(Cl)c(Nc4ccsc4C(=O)NC)n3)ccc21 [Example 1409, 3-[5-Chloro-2-(9-ethyl-6,7,8,9-tetrahydro-5-oxa-9-aza-benzocyclohepten-3-ylamino)-pyrimidin-4-ylamino]-thiophene-2-carboxylic acid methyl amide] | 100 to 1000 | 100 to 1000 | – | – | –
18 | COCC(COC)N1CCc2cc(Nc3ncc(Cl)c(Nc4ccccc4S(=O)(=O)N(C)C)n3)c(OC)cc2CC1 [Example 818, 2-{5-Chloro-2-[8-methoxy-3-(2-methoxy-1-methoxymethyl-ethyl)-2,3,4,5-tetrahydro-1H-benzo[d]azepin-7-ylamino]-pyrimidin-4-ylamino}-N,N-dimethyl-benzenesulfonamide] | – | – | > 10000 | < 100 | –
19 | COc1c(Nc2ncc(Cl)c(N[C@H]3[C@@H](C(N)=O)[C@@H]4C=C[C@H]3C4)n2)ccc2c1CCCC(=O)N2 (relative stereo) [Example 139, (2-exo,3-exo)-3-[5-Chloro-2-(6-methoxy-2-oxo-2,3,4,5-tetrahydro-1H-benzo[b]azepin-7-ylamino)-pyrimidin-4-ylamino]-bicyclo[2.2.1]hept-5-ene-2-carboxylic acid amide] | – | – | – | – | IC50 [1, 7]: > 10000 nM; IC50 [2, 8]: < 100 nM
20 | 7-[5-Chloro-4-(2-methoxy-4-morpholin-4-yl-phenylamino)-pyrimidin-2-ylamino]-1-ethyl-5,5-dimethyl-1,3,4,5-tetrahydro-benzo[b]azepin-2-one [Example 393] | – | – | – | – | IC50 [1, 7]: > 10000 nM; IC50 [2, 8]: < 100 nM
21 | COc1c(Nc2ncc(Cl)c(Nc3ccccc3S(=O)(=O)N(C)C)n2)ccc2c1CCC(N1CCCC(O)C1)CC2 (mixture of isomers) [Example 907, 2-{5-Chloro-2-[7-(3-hydroxy-piperidin-1-yl)-1-methoxy-6,7,8,9-tetrahydro-5H-benzocyclohepten-2-ylamino]-pyrimidin-4-ylamino}-N,N-dimethyl-benzenesulfonamide] | – | – | > 10000 | < 100 | –
22 | CNC(=O)c1cccc(Nc2nc(Nc3ccc4c(c3)C(C)(C)CCC(=O)N4)ncc2Cl)c1 [Example 672, 3-[5-Chloro-2-(5,5-dimethyl-2-oxo-2,3,4,5-tetrahydro-1H-benzo[b]azepin-7-ylamino)-pyrimidin-4-ylamino]-N-methyl-benzamide] | – | – | 1000 to 10000 | 100 to 1000 | –
23 | COCCN(C)S(=O)(=O)c1ccccc1Nc1nc(Nc2cc3c(cc2OC)CCN(CC(=O)N(C)C)CC3)ncc1Cl [Example 1184, 2-[7-(5-Chloro-4-{2-[(2-methoxy-ethyl)-methyl-sulfamoyl]-phenylamino}-pyrimidin-2-ylamino)-8-methoxy-1,2,4,5-tetrahydro-benzo[d]azepin-3-yl]-N,N-dimethyl-acetamide] | > 10000 | < 100 | – | – | –
